# Measurements as given in publication PMC5429769, “Rational development of Stafib-2: a selective, nanomolar inhibitor of the transcription factor STAT5b” (Scientific Reports, 2017).
# Changes are numbered by the printed parent chain.
# Columns and labels:
# Format in all cases: binding
# [1] = target: T1, STAT4 (Homo sapiens, UniProt Q14765); assay: Fluorescence polarization assay, STAT4
# T1 sequence (Q14765 1-748): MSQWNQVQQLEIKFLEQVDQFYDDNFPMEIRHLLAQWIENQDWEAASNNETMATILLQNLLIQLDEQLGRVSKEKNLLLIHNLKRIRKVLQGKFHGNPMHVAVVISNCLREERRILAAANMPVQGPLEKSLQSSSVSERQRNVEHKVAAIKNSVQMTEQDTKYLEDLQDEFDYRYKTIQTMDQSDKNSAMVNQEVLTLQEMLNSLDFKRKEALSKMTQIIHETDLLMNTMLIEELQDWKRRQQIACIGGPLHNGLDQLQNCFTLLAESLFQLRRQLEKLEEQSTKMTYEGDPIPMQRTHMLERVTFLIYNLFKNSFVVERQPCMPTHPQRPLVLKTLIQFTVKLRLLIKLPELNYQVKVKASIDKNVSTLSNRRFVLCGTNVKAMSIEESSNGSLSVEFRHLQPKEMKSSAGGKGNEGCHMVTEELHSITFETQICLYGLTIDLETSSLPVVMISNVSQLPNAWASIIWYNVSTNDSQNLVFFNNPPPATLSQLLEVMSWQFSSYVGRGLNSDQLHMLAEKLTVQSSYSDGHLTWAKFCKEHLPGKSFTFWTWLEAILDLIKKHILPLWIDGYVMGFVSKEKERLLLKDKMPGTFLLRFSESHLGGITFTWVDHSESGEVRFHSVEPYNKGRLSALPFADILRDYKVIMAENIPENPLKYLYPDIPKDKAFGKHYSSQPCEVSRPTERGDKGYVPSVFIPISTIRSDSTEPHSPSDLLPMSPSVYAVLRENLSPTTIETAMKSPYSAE
# [2] = target: T2, STAT5b SH2 domain (Homo sapiens, UniProt P51692); assay: Fluorescence polarization assay, STAT5b SH2 domain
# T2 sequence (P51692 1-787): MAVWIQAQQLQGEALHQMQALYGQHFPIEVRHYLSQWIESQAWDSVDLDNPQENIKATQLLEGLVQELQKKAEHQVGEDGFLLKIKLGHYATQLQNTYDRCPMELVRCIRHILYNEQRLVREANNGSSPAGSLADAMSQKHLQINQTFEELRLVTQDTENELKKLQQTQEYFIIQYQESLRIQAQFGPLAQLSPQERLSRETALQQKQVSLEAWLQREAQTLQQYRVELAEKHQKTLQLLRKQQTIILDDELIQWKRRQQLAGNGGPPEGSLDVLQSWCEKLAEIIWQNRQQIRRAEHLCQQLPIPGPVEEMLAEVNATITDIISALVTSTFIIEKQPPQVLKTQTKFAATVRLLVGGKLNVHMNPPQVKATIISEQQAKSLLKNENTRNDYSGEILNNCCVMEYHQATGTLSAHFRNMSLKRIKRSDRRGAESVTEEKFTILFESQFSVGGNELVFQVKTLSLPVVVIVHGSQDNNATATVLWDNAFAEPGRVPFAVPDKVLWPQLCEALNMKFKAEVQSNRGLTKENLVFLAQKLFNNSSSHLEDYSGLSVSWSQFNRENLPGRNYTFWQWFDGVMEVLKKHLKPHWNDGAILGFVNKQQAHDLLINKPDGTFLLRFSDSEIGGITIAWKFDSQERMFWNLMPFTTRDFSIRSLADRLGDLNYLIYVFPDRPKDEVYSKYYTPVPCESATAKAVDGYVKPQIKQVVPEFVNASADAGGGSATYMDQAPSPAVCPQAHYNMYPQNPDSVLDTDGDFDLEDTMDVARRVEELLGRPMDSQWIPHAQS
# [3] = target: T3, wild-type STAT5b (Homo sapiens, UniProt P51692); assay: Isothermal titration calorimetry, wild-type STAT5b; conditions: ITC, 25 °C, n = 3
# T3 sequence (P51692 1-787): T2 sequence (P51692 1-787)
# [4] = system: STAT3; assay: Fluorescence polarization assay, STAT3; conditions: at 40 µM
# [5] = target: T4, STAT5b Lys600Ala (Homo sapiens, UniProt P51692, K600A); assay: Isothermal titration calorimetry, STAT5b Lys600Ala; conditions: ITC, 25 °C
# T4 sequence (P51692 1-787 K600A): T2 sequence (P51692 1-787) with K600A
compound,measurement,setting,value
"O=C(COc1ccc(C(=O)Nc2ccc(Oc3ccccc3)cc2)cc1)NCc1ccc(OP(=O)(O)O)c(OP(=O)(O)O)c1 [compound 4, 4-((2-(4-((4-phenoxyphenyl)carbamoyl)phenoxy)acetamido)methyl)-1,2-phenylene bis(dihydrogen phosphate)]",IC50,[1],9100 ± 300 nM
same,fold reduced Ki value relative to 2,[2]; STAT5b Ki,5 fold
same,fold reduction in Ki value relative to 3,[2]; STAT5b Ki,more than 10 fold
same,Ki,"[2]; abstract, rounded",9 nM
same,Ki,"[2]; converted from IC50 using the published equation, mean ± s.d., n = 3",8.8 ± 0.3 nM
same,IC50,"[2]; fluorescence polarization, mean ± s.d., three independent experiments",82 ± 3 nM
same,ΔH,[3],-4.1 ± 0.5 kcal/mol
same,−TΔS,[3],-4.8 ± 0.6 kcal/mol
same,STAT3 maximum inhibition,[4],30 ± 3%
same,Kd,[5],23000 ± 10000 nM
